Reference: patent EP3389676B1, “DOSAGE REGIMEN OF SODIUM SELENITE IN THE TREATMENT OF CANCER” (Pharma Nord ApS, priority 2015, dated 2017)

Assays:
[1] = tested on: patients with advanced cancer diseases; test: Phase I dose-escalation trial of intravenously administered sodium selenite: toxicity and MTD; assay type: in vivo, human
Protocol: In a previous study, the present inventors carried out the first in-human phase-I trial to determine the MTD of intravenously administered sodium selenite in patients with advanced cancer diseases.
This phase I trial is an open-label dose-escalation study of i.v. administered sodium selenite. Each cohort consists of three patients who are treated with dosages regimens according to a predefined schedule having the two-step dosage regimen.
Serious toxicity in primarily the brain and the heart has been recorded in patients treated with high doses of selenite.
With a few exceptions, all patients visited the clinic before and after infusion, at least once a week during the treatment, before each chemotherapy treatment and at the end of treatment. At these occasions, the medical history is recorded, and a physical examination is performed. Patients undergo CT or PET-CT examination one week before the start, three days after the completion of the selenite treatment and after the final chemotherapy treatment. Routine blood parameters are analysed before, during and after the treatment. The ECG is examined before the start and after both the selenite and chemotherapy treatments.

[2] = Pharmacokinetics: plasma selenium by ICP-MS, one compartment infusion model; assay type: in vivo, human
Protocol: Blood samples are collected about 5 minutes prior and post infusion at all treatments. The plasma fractions are obtained by centrifugation and stored at -70°C until analyses.
Pharmacokinetic analyses are performed by using the Win-Nonlin program Standard Edition version 1.5 (Pharsight Corporation, Mountain View, CA, USA).
The one compartment infusion model was used for the evaluation of the pharmacokinetics. The reciprocal concentrations were used as weights for the iterative procedure. […] AUC values during the entire treatment period (i.e. from day 0 to day 35) were evaluated by applying the trapezoidal rule to estimated time-concentration curves.

[3] = tested on: patients with advanced cancer diseases; conditions: SECAR clinical phase I study; intermittent daily infusions (20-40 minutes); Brodin et al. 2014; cited from earlier work
cancer patients = conditions: cumulative intravenous administration of 100 mg; reports about a century ago; cited from earlier work

## O=[Se](O)O [sodium selenite]
[1]; 3.0 mg/m^2, cohort 2
  Toxicity registered from similar dose, during similar time but as intermittent infusion: 3.0 mg/m^2, cohort 2, no certain toxicity,
[1]; 4.5 mg/m^2, cohort 3
  Toxicity registered from similar dose, during similar time but as intermittent infusion: very mild toxicity
[1]; 6.0 mg/m^2, cohort 4
  Toxicity registered from similar dose, during similar time but as intermittent infusion: 6.0 mg/m^2, cohort 4, mild toxicity
[1]; 9.0 mg/m2, cohort 5
  Toxicity registered from similar dose, during similar time but as intermittent infusion: gr 1 toxicity
[1]; 20.4 mg/m^2, cohort 7
  Toxicity registered from similar dose, during similar time but as intermittent infusion: grade 2 toxicity
[1]; 38.4 mg/m^2, cohort 10
  Toxicity registered from similar dose, during similar time but as intermittent infusion: 38.4 mg/m^2, cohort 10, gr 3 & gr 4 toxicity
[1]; DLT appeared some hours after selenite infusion, without persisting toxicity or sequelae
  duration of dose-limiting toxicity (DLT): 6 to 8 h
[1]; at MTD dose (10.2 mg/m^2) and below
  bone marrow toxicity: no bone marrow toxicity was evident
[1]; cohort 8, total dose given as intermittent infusion over similar time
  MTD for repeated infusions: 30.6 mg/m2
[1]; could be dose-limiting in spite of antiemetic treatment
  toxicity mainly observed as: nausea, vomiting and fatigue
[1]; especially at high dose levels such as beyond MTD
  most significant adverse effects: heart toxicity with signs of ischemia, confusion and unconsciousness
[1]; intravenously administered, previous first in-human phase-I trial, well tolerated at doses up to this value
  MTD: 10.2 mg/m^2
[2]; high doses of repeated selenite administration
  plasma selenite concentration at the end of the treatment: returned to the baseline levels
[2]; in vivo
  plasma selenite concentration with respect to the total dose: linear increase
[3]
  maximum tolerated dose: approximately 10.2 mg/m^2
Cancer patients
  toxic effects: no incidence of toxic effects
